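Five concentrations, 48 hours, 96-well plates. The concentration for 50% growth inhibition is given as GI50.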 Activity calls are given as the source filed them. Cut-off read from the data, not from the text of the source: active = GI50 up to about 1.1 µM and inactive = higher.
How the values were obtained:
Assay in all cases: NCI-60 cell line screen, 48 h
UACC-257 = test system: UACC-257
LOX IMVI = test system: LOX IMVI
A549 = test system: A549
RPMI-8226 = test system: RPMI-8226
Malme-3M = test system: Malme-3M
A498 = test system: A498
UACC-62 = test system: UACC-62
SNB-75 = test system: SNB-75
OVCAR-8 = test system: OVCAR-8
SW-620 = test system: SW-620
SF-268 = test system: SF-268
CCRF-CEM = test system: CCRF-CEM
DLD-1 = test system: DLD-1
HOP-62 = test system: HOP-62
KM12 = test system: KM12
SNB-19 = test system: SNB-19
SF-295 = test system: SF-295
KM-20L2 = test system: KM-20L2
HOP-18 = test system: HOP-18
IGROV-1 = test system: IGROV-1
NCI-H460 = test system: NCI-H460
TK-10 = test system: TK-10
SK-MEL-5 = test system: SK-MEL-5
SF-539 = test system: SF-539
RXF 631 = test system: RXF 631
M19-MEL = test system: M19-MEL
SK-OV-3 = test system: SK-OV-3
HT-29 = test system: HT-29
HCT-15 = test system: HCT-15
OVCAR-5 = test system: OVCAR-5
UO-31 = test system: UO-31
RXF 393 = test system: RXF 393
OVCAR-4 = test system: OVCAR-4
SK-MEL-2 = test system: SK-MEL-2
OVCAR-3 = test system: OVCAR-3
ACHN = test system: ACHN
K562 = test system: K562
SK-MEL-28 = test system: SK-MEL-28
786-0 = test system: 786-0
HCC 2998 = test system: HCC 2998
SNB-78 = test system: SNB-78
DMS-273 = test system: DMS-273
SN12C = test system: SN12C
DMS-114 = test system: DMS-114
CAKI-1 = test system: CAKI-1
COLO 205 = test system: COLO 205
MOLT-4 = test system: MOLT-4
EKVX = test system: EKVX
LXFL 529 = test system: LXFL 529
NCI-H23 = test system: NCI-H23
U-251 = test system: U-251
M14 = test system: M14

Measured: GI50

C[P+]1(c2ccccc2)CCCCC1
> 100 µM: HCT-15
inactive: UACC-257 > 100 µM | LOX IMVI > 100 µM | A549 > 100 µM | RPMI-8226 > 100 µM | Malme-3M > 100 µM | A498 > 100 µM | UACC-62 > 100 µM | SNB-75 > 100 µM | OVCAR-8 > 100 µM | SW-620 > 100 µM | SF-268 > 100 µM | CCRF-CEM > 100 µM | DLD-1 > 100 µM | HOP-62 > 100 µM | KM12 > 100 µM | SNB-19 > 100 µM | SF-295 > 100 µM | KM-20L2 > 100 µM | IGROV-1 > 100 µM | NCI-H460 > 100 µM | TK-10 > 100 µM | SK-MEL-5 > 100 µM | SF-539 > 100 µM | RXF 631 > 100 µM | M19-MEL > 100 µM | SK-OV-3 > 100 µM | HT-29 > 100 µM | OVCAR-5 > 100 µM | UO-31 > 100 µM | RXF 393 > 100 µM | OVCAR-4 > 100 µM | SK-MEL-2 > 100 µM | OVCAR-3 > 100 µM | ACHN > 100 µM | K562 > 100 µM | SK-MEL-28 > 100 µM | 786-0 > 100 µM | HCC 2998 > 100 µM | SNB-78 > 100 µM | DMS-273 > 100 µM | SN12C > 100 µM | DMS-114 > 100 µM | CAKI-1 > 100 µM | COLO 205 > 100 µM | MOLT-4 > 100 µM | EKVX > 100 µM | LXFL 529 > 100 µM | NCI-H23 > 100 µM | U-251 > 100 µM | M14 > 100 µM
active: HOP-18 48.4 nM
